Key:
[1] = Phase II trial, safety and tolerability (adverse events)
Description: The criteria for evaluation of safety were:
An AE is therefore any unfavorable and unintended sign, symptom or disease temporally associated with the use of a medicinal product, whether or not considered related to the medicinal product.
Patients were analyzed as treated, i.e. according to the treatment which they received. The safety set was the primary analysis set for the safety analysis.
The present study was a double-blind study. All patients who were randomized and for whom the sub-conjunctival injection was started are included in the safety analysis by dose group. […] If the study treatment eye drops were stopped prematurely (i.e. before day 21), the patients concerned continued follow-up until day 28, in accordance with the study protocol.
Investigators assessed (in a blinded manner) the relationship of each reported AE to any of the study treatments. An event was considered to be related to study treatment if the Investigator ticked either ‘possible’ or ‘probable’ as the reply to this question.

[2] = tested on: HCT 116 human colon tumor; assay: Orthotopic HCT 116 human colon tumors in SCID mice; type: in vivo
Description: The objective of this study was to determine the effect of XG-102 on the growth of HCT 116 human colon tumor orthotopically xenografted in SCID mice.
For XG-102 administration the required amount of XG-102 was dissolved in the vehicle. The formulation was prepared according to the procedure detailed below. Concentrations were calculated and expressed taking into account test item purity and peptide content (multiplier coefficient was 74.6%). […] Diluted solutions were maintained on ice until use. Unused material was discarded. XG-102 was injected once daily at 0.1 and 1 mg/kg/inj. for a total of fourteen consecutive administrations (Q1D×14). The routes of substance administrations were: injected subcutaneously (SC) at 5 ml/kg/inj., administered per os (PO) to mice by oral gavage via a canula at 5 ml/kg/adm. The injection and administration volumes were adapted, according to the daily individual body weight of mice.
Twenty four to Forty-eight hours before tumor induction, 5 SCID mice were irradiated with a γ-source (1.8 Gy, Co^60, INRA, Dijon, France). Ten millions (10^7) HCT 116 cells suspended in 200 μl of RPMI medium were subcutaneously injected in the right flank of the 5 female SCJD mice. When tumors reached 1000-2000 mm^3, mice were sacrificed. […]
Mice were sacrificed at D26. […] Invasion of liver by tumor nodules was evaluated macroscopically. […]

[3] = tested on: Primary cultured macrophages; type: cell-based
Description: FIG. 24 Primary cultured macrophages were incubated with XG-102 (SEQ ID NO: 11) and extensively washed.

Q: What does the source list for CC(C)C[C@@H](NC(=O)[C@@H](Cc1ccccc1)NC(=O)[C@H]1CCCN1C(=O)[C@@H](CCC(N)=O)NC(=O)[C@H](NC(=O)[C@H]1CCCN1C(=O)[C@@H](CCCNC(=N)N)NC(=O)[C@@H](CO)NC(=O)[C@@H](CCC(N)=O)NC(=O)[C@H](N)CC(=O)O)C(C)C)C(=O)N[C@H](CC(N)=O)C(=O)N[C@H](CC(C)C)C(=O)N[C@@H](C(=O)N[C@@H](C(=O)N1CCC[C@@H]1C(=O)N[C@H](CCCNC(=N)N)C(=O)N[C@H](CCCCN)C(=O)N1CCC[C@@H]1C(=O)N[C@H](CCCNC(=N)N)C(=O)N1CCC[C@@H]1C(=O)N1CCC[C@@H]1C(=O)N[C@H](CCCNC(=N)N)C(=O)N[C@H](CCCNC(=N)N)C(=O)N[C@H](CCCNC(=N)N)C(=O)N[C@H](CCC(N)=O)C(=O)N[C@H](CCCNC(=N)N)C(=O)N[C@H](CCCNC(=N)N)C(=O)N[C@H](CCCCN)C(=O)N[C@H](CCCCN)C(=O)N[C@H](CCCNC(=N)N)C(=O)NCC(=O)O)[C@H](C)O)[C@H](C)O [XG-102]?
A: patients with Intraocular pressure increased ([1]; XG-102 90 μg): 23%; percentage of patients who experienced an AE within 24 hours ([1]; XG-102 90 μg): 34%; overall tolerability ([1]; XG-102 90 μg and 900 μg): well tolerated in patients who underwent complex ocular surgery; Adverse events which led to an interruption of study treatment ([1]; XG-102 90 μg dose group): 11 (14.1%) number of events (%); patients with Intraocular pressure increased ([1]; XG-102 900 μg): 10%; percentage of patients who experienced an AE within 24 hours ([1]; XG-102 900 μg): 27%; Adverse events which led to an interruption of study treatment ([1]; XG-102 900 μg dose group): 8 (11.6%) number of events (%); MBWC at D−2 ([2]; PO 0.1 mg/kg/adm.): 7.1±4.6%; lethality after surgery vs vehicle treated group ([2]; mouse, in vivo): did not significantly modify lethality compared to vehicle treated group; incorporation into primary macrophages [3]: strongly incorporated into primary macrophages

Source: patent publication US10624948B2, “Use of cell-permeable peptide inhibitors of the JNK signal transduction pathway for the treatment of various diseases” (Xigen Inflammation Ltd., priority 2013, dated 2020)
